For 24 compounds, IC90 and Ki results are on record in patent publication USRE37781E1, “Substituted cyclic carbonyls and derivatives thereof useful as retroviral protease inhibitors” (DuPont Pharmaceuticals Company, priority 1991, dated 2002).

SMILES strings stand for the structures. Values after ≈ are worked out from the molar mass of the structure shown. Bounds are passed on as bounds.

The subject of one experiment is HIV-1 (RF) in MT-2 cells. The experiment can be described thus: microbe, parasite or virus in culture. Type of experiment: cell-based. The conditions noted are these: Human immunodeficiency virus 1, MT2, 48 h. The gist of the method: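 HIV-1 laboratory strains (RF, MN, IIIB) grown in H9 cells in RPMI 1640 with 5% FCS; infections in MT-2 cells. Viral RNA quantified by hybridization with biotinylated gag/pol capture probes on streptavidin plates and alkaline phosphatase-conjugated reporter probes; BH10 gag-pol in vitro transcripts serve as RNA standards.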
In turn, `C=CCN1C(=O)N(CC=C)[C@H](Cc2ccccc2)[C@@H](O)[C@H](O)[C@H]1Cc1ccccc1` [Example 13N] showed an IC90 of 10 to 100 µg/mL (≈ 24.6 to 246 µM).

Staying with this experiment, now noted: Human immunodeficiency virus 1, MT2, 48 h, Table 2d; HIV RNA assay; read-out: IC90.
On to `O=C(CCl)Nc1cccc(CN2C(=O)N(Cc3cccc(NC(=O)CCl)c3)C(Cc3ccccc3)C(O)C(O)C2Cc2ccccc2)c1` (stereo not drawn) [Example 15AA], for which the IC90 was < 10 µg/mL.
The same measure, in the same setting: in the case of `N#Cc1cccc(CN2C(=O)N(Cc3ccc(O)cc3)C(Cc3ccccc3)C(O)C(O)C2Cc2ccccc2)c1` (stereo not drawn) [Example 15AQ] it was < 10 µg/mL.

Still in this experiment, the particulars now being: Human immunodeficiency virus 1, MT2, 48 h, Table 2d; class symbols; read-out: IC90.
Consider `NCCCCCCN1C(=O)N(Cc2ccccc2)C(Cc2ccccc2)C(O)C(O)C1Cc1ccccc1` (stereo not drawn) [Example 12B], for which the IC90 was > 100 µg/mL.
Regarding `O=C1NC(Cc2ccccc2)C(O)C(O)C(Cc2ccccc2)N1CCCCCCO` (stereo not drawn) [Example 12C], the IC90 was < 10 µg/mL.
On to `O=C1N(CCCCCCO)C(Cc2ccccc2)C(O)C(O)C(Cc2ccccc2)N1CCCCCCO` (stereo not drawn) [Example 12D], for which the IC90 was < 10 µg/mL.
In the case of `O=C1N(CCCCCCO)C(Cc2ccccc2)C(O)C(O)C(Cc2ccccc2)N1CC1CC1` (stereo not drawn) [Example 12E], the IC90 was < 10 µg/mL.
As for `O=C1N(CCCCO)C(Cc2ccccc2)C(O)C(O)C(Cc2ccccc2)N1CCCCO` (stereo not drawn) [Example 12F], the IC90 fell in the range of 10 to 100 µg/mL (≈ 21.2 to 212 µM).
Consider `O=C(O)CCCCCN1C(=O)N(CCCCCC(=O)O)C(Cc2ccccc2)C(O)C(O)C1Cc1ccccc1` (stereo not drawn) [Example 12G], for which the IC90 is < 10 µg/mL.
`COC(=O)CCCCCN1C(=O)N(CCCCCC(=O)OC)C(Cc2ccccc2)C(O)C(O)C1Cc1ccccc1` (stereo not drawn) [Example 12H]: the IC90 lay within 10 to 100 µg/mL (≈ 17.2 to 172 µM).
On to `O=C1N(Cc2cccc(I)c2)C(Cc2ccccc2)C(O)C(O)C(Cc2ccccc2)N1Cc1cccc(I)c1` (stereo not drawn) [Example 12J], for which the IC90 is < 10 µg/mL.
Turning to `O=C1N(CCCCCCCCO)C(Cc2ccccc2)C(O)C(O)C(Cc2ccccc2)N1CCCCCCCCO` (stereo not drawn) [Example 12K], the IC90 is < 10 µg/mL.
The same measure, in the same setting: in the case of `O=C1N(Cc2ccccc2)C(Cc2ccccc2)C(O)C(O)C(Cc2ccccc2)N1CC1CC1CO` (stereo not drawn) [Example 12M] it was < 10 µg/mL; in that of `O=C1NC(Cc2ccccc2)C(O)C(O)C(Cc2ccccc2)N1CC1CC1CO` (stereo not drawn) [Example 12N], > 100 µg/mL.
Still for that read-out and setting: in the case of `O=C1N(CCCCCCCO)C(Cc2ccccc2)C(O)C(O)C(Cc2ccccc2)N1CCCCCCCO` (stereo not drawn) [Example 12P] it was < 10 µg/mL; in that of `O=C1NC(Cc2ccccc2)C(O)C(O)C(Cc2ccccc2)N1CCOCCO` (stereo not drawn) [Example 12T], > 100 µg/mL; in that of `O=C1N(CCOCCO)C(Cc2ccccc2)C(O)C(O)C(Cc2ccccc2)N1CCOCCO` (stereo not drawn) [Example 12U], 10 to 100 µg/mL (≈ 19.9 to 199 µM).
With `CC(=O)OCCCCCCN1C(=O)N(CCCCCCO)C(Cc2ccccc2)C(O)C(O)C1Cc1ccccc1` (stereo not drawn) [Example 12V], the IC90 is < 10 µg/mL.
Turning to `CNC(=O)OCCCCCCN1C(=O)N(CCCCCCOC(=O)NC)C(Cc2ccccc2)C(O)C(O)C1Cc1ccccc1` (stereo not drawn) [Example 12W], the IC90 is 10 to 100 µg/mL (≈ 15.6 to 156 µM).
On the same count and under the same terms, in the case of `O=C1NC(Cc2ccccc2)C(O)C(O)C(Cc2ccccc2)N1CCCCCCCO` (stereo not drawn) [Example 12o] it was 10 to 100 µg/mL (≈ 22.7 to 227 µM); in that of `C=CCCCCN1C(=O)N(CCCCC=C)C(Cc2ccccc2)C(O)C(O)C1Cc1ccccc1` (stereo not drawn) [Example 13D], < 10 µg/mL.
`O=C1N(CCCCC2CO2)C(Cc2ccccc2)C(O)C(O)C(Cc2ccccc2)N1CCCCC1CO1` (stereo not drawn) [Example 13E]: the IC90 is < 10 µg/mL.
On the same count and under the same terms, in the case of `O=C1N(CCCCC(Br)CBr)C(Cc2ccccc2)C(O)C(O)C(Cc2ccccc2)N1CCCCC(Br)CBr` (stereo not drawn) [Example 13F] it was > 100 µg/mL; in that of `O=C1N(CCCCC(O)CBr)C(Cc2ccccc2)C(O)C(O)C(Cc2ccccc2)N1CCCCC(O)CBr` (stereo not drawn) [Example 13G], < 10 µg/mL.

The next experiment addresses single-chain tethered dimer of HIV protease (Human immunodeficiency virus 1, UniProt P04585). The experiment can be described thus: biochemical. Also on record: fused on or other part: A second copy of the same protease unit is joined to the first by a short peptide tether, giving one polypeptide. Type of experiment: biochemical. The conditions noted are these: read-out: HPLC K1; Table 2d; HIV protease inhibition, HPLC method.
Turning to `O=C(CCl)Nc1cccc(CN2C(=O)N(Cc3cccc(NC(=O)CCl)c3)C(Cc3ccccc3)C(O)C(O)C2Cc2ccccc2)c1` (stereo not drawn) [Example 15AA], the Ki was < 10 nM.
The same measure, in the same setting: in the case of `N#Cc1cccc(CN2C(=O)N(Cc3ccc(O)cc3)C(Cc3ccccc3)C(O)C(O)C2Cc2ccccc2)c1` (stereo not drawn) [Example 15AQ] it was < 10 nM.

Staying with this experiment, now noted: read-out: HPLC K1; Table 2d; class symbols.
Regarding `NCCCCCCN1C(=O)N(Cc2ccccc2)C(Cc2ccccc2)C(O)C(O)C1Cc1ccccc1` (stereo not drawn) [Example 12B], the Ki fell in the range of 10 to 1000 nM.
Still for that read-out and setting: in the case of `O=C1NC(Cc2ccccc2)C(O)C(O)C(Cc2ccccc2)N1CCCCCCO` (stereo not drawn) [Example 12C] it was < 10 nM; in that of `O=C1N(CCCCCCO)C(Cc2ccccc2)C(O)C(O)C(Cc2ccccc2)N1CCCCCCO` (stereo not drawn) [Example 12D], < 10 nM; in that of `O=C1N(CCCCCCO)C(Cc2ccccc2)C(O)C(O)C(Cc2ccccc2)N1CC1CC1` (stereo not drawn) [Example 12E], < 10 nM.
On the same count and under the same terms, in the case of `O=C1N(CCCCO)C(Cc2ccccc2)C(O)C(O)C(Cc2ccccc2)N1CCCCO` (stereo not drawn) [Example 12F] it was 10 to 1000 nM; in that of `O=C(O)CCCCCN1C(=O)N(CCCCCC(=O)O)C(Cc2ccccc2)C(O)C(O)C1Cc1ccccc1` (stereo not drawn) [Example 12G], < 10 nM.
On the same count and under the same terms, to `COC(=O)CCCCCN1C(=O)N(CCCCCC(=O)OC)C(Cc2ccccc2)C(O)C(O)C1Cc1ccccc1` (stereo not drawn) [Example 12H] belongs 10 to 1000 nM; to `O=C1N(Cc2cccc(I)c2)C(Cc2ccccc2)C(O)C(O)C(Cc2ccccc2)N1Cc1cccc(I)c1` (stereo not drawn) [Example 12J], < 10 nM; to `O=C1N(CCCCCCCCO)C(Cc2ccccc2)C(O)C(O)C(Cc2ccccc2)N1CCCCCCCCO` (stereo not drawn) [Example 12K], 10 to 1000 nM.
For the compound `O=C1N(Cc2ccccc2)C(Cc2ccccc2)C(O)C(O)C(Cc2ccccc2)N1CC1CC1CO` (stereo not drawn) [Example 12M], the Ki was < 10 nM.
Consider `O=C1NC(Cc2ccccc2)C(O)C(O)C(Cc2ccccc2)N1CC1CC1CO` (stereo not drawn) [Example 12N], for which the Ki was 10 to 1000 nM.
`O=C1N(CCCCCCCO)C(Cc2ccccc2)C(O)C(O)C(Cc2ccccc2)N1CCCCCCCO` (stereo not drawn) [Example 12P]: the Ki lay within 10 to 1000 nM.
On the same count and under the same terms, to `O=C1NC(Cc2ccccc2)C(O)C(O)C(Cc2ccccc2)N1CCOCCO` (stereo not drawn) [Example 12T] belongs 10 to 1000 nM; to `O=C1N(CCOCCO)C(Cc2ccccc2)C(O)C(O)C(Cc2ccccc2)N1CCOCCO` (stereo not drawn) [Example 12U], > 1000 nM; to `CC(=O)OCCCCCCN1C(=O)N(CCCCCCO)C(Cc2ccccc2)C(O)C(O)C1Cc1ccccc1` (stereo not drawn) [Example 12V], 10 to 1000 nM.
As to `CNC(=O)OCCCCCCN1C(=O)N(CCCCCCOC(=O)NC)C(Cc2ccccc2)C(O)C(O)C1Cc1ccccc1` (stereo not drawn) [Example 12W], the Ki is 10 to 1000 nM.
On the same count and under the same terms, to `O=C1NC(Cc2ccccc2)C(O)C(O)C(Cc2ccccc2)N1CCCCCCCO` (stereo not drawn) [Example 12o] belongs 10 to 1000 nM; to `C=CCCCCN1C(=O)N(CCCCC=C)C(Cc2ccccc2)C(O)C(O)C1Cc1ccccc1` (stereo not drawn) [Example 13D], < 10 nM; to `O=C1N(CCCCC2CO2)C(Cc2ccccc2)C(O)C(O)C(Cc2ccccc2)N1CCCCC1CO1` (stereo not drawn) [Example 13E], 10 to 1000 nM.
The same measure, in the same setting: to `O=C1N(CCCCC(Br)CBr)C(Cc2ccccc2)C(O)C(O)C(Cc2ccccc2)N1CCCCC(Br)CBr` (stereo not drawn) [Example 13F] belongs 10 to 1000 nM; to `O=C1N(CCCCC(O)CBr)C(Cc2ccccc2)C(O)C(O)C(Cc2ccccc2)N1CCCCC(O)CBr` (stereo not drawn) [Example 13G], < 10 nM.
The same measure, in the same setting: to `C=CCN1C(=O)N(CC=C)[C@H](Cc2ccccc2)[C@@H](O)[C@H](O)[C@H]1Cc1ccccc1` [Example 13N] belongs > 1000 nM.

The IC90 is the point of the concentration-response curve where the effect stands at 90%.
